According to patent publication US20250345277A1, “Ionizable Liposome, Preparation Thereof, and Application Thereof in Gene Delivery” (MAXIRNA (ZHEJIANG) TECHNOLOGY CO. LTD., priority 2021, published 2025):

Experiments:
[1] = Entrapment efficiency of LNP preparation encapsulating EGFP mRNA; assay type: physicochemical; conditions: LNP ionizable lipid/DOPE/cholesterol/DSPE-PEG2000 35/16/46.5/2.5 mol% encapsulating EGFP mRNA
Method: The ionizable lipid compound of Example 1 was dissolved in ethanol with DOPE, cholesterol and DSPE-PEG2000 (all purchased from AVT (Shanghai) Pharmaceutical Technology Co., Ltd.) at a molar ratio of 35:16:46.5:2.5 to prepare ethanol lipid solution, and enhanced green fluorescent protein (EGFP) mRNAs (Shanghai Maximna Pharmaceutical Engineering Co., Ltd., JN-4201) were diluted in 20 mM citrate buffer (pH=6.1) to obtain mRNA aqueous solution. Ethanol lipid solution and mRNA aqueous solution were mixed at a volume ratio of 1:3 by using a microfluidic device (Micro&Nano (Shanghai) Instrument Technology Co., Ltd., model: INano™ML), LNPs were prepared with a weight ratio of approximately 10:1 between total lipids and mRNAs. The medium was replaced by ultrafiltration, ethanol was removed and volumed with DPBS. Finally, the lipid nanoparticles were filtered through a 0.2 μm sterile filter to obtain a LNP formulation encapsulating eGFP mRNA using ionizable lipid/DOPE/cholesterol/DSPE-PEG2000 (35/16/46.5/2.5 mol %), the concentration of mRNAs being 0.002 mg/mL-0.5 mg/mL. […]

[2] = Size and polydispersity index PDI of lipid nanoparticles (Malvern Zetasizer Nano ZS); assay type: physicochemical; conditions: LNP ionizable lipid/DOPE/cholesterol/DSPE-PEG2000 35/16/46.5/2.5 mol% encapsulating EGFP mRNA; for Particle Size: in nm (unit assumed)
Method: The ionizable lipid compound of Example 1 was dissolved in ethanol with DOPE, cholesterol and DSPE-PEG2000 (all purchased from AVT (Shanghai) Pharmaceutical Technology Co., Ltd.) at a molar ratio of 35:16:46.5:2.5 to prepare ethanol lipid solution, and enhanced green fluorescent protein (EGFP) mRNAs (Shanghai Maximna Pharmaceutical Engineering Co., Ltd., JN-4201) were diluted in 20 mM citrate buffer (pH=6.1) to obtain mRNA aqueous solution. Ethanol lipid solution and mRNA aqueous solution were mixed at a volume ratio of 1:3 by using a microfluidic device (Micro&Nano (Shanghai) Instrument Technology Co., Ltd., model: INano™ML), LNPs were prepared with a weight ratio of approximately 10:1 between total lipids and mRNAs. The medium was replaced by ultrafiltration, ethanol was removed and volumed with DPBS. Finally, the lipid nanoparticles were filtered through a 0.2 μm sterile filter to obtain a LNP formulation encapsulating eGFP mRNA using ionizable lipid/DOPE/cholesterol/DSPE-PEG2000 (35/16/46.5/2.5 mol %), the concentration of mRNAs being 0.002 mg/mL-0.5 mg/mL.
Using Malvern Zetasizer Nano ZS (Malvern UK), the size and polydispersity index PDI of lipid nanoparticles were measured at […].

[3] = system: DC2.4 cells; assay: In vitro transfection of DC2.4 cells with EGFP mRNA LNP preparation (flow cytometry); assay type: cell-based, mouse; conditions: DC2.4 cells; for Cell Viability / Positive Rate (EGFP): EGFP mRNA LNP, 200 ng mRNA per well, flow cytometry; for Fluorescence Intensity: EGFP mRNA expression level, normalized based on the sample with the highest fluorescence intensity
From the text: The description is based on peripheral blood mononuclear cells PBMC (Shanghai Oribiotech Co., Ltd.), human peripheral blood leukemia T cell Jurkat (ATCC), tumor infiltrating lymphocyte TIL (isolated from resected tumor tissue of a liver cancer patient, the preparation method refers to CN114763530A), mouse bone marrow-derived dendritic cells DC2.4 (Cell Bank of the Chinese Academy of Sciences), and Chinese hamster ovary cells CHO (ATCC) were used as verified cell lines for liposome transfection. PBMC, Jurkat, and TIL cells grew in suspension, while DC2.4 and CHO cells grew by adherent culture. All the operation steps of cell culture must strictly abide by the prescribed procedures, and sterile reagents is used to perform aseptic operations under a sterile workbench. The main steps are as follows: • 1) Cell recovery: the preserved cell cryopreservation solution was taken out of the −80° C. refrigerator, and was immediately put in a 37° C. water bath for rapid and continuous shaking, and was completely melted within one minute. Fresh medium was added to the 15 mL centrifuge tube in advance, and the cell solution was added to the centrifuge tube in a biological safety cabinet. A centrifuge tube of the same quality was taken and placed symmetrically in a centrifuge, centrifuged at a low speed at 1200 rpm for 5 min. After centrifugation, the supernatant was removed, and an appropriate amount of medium was slowly added along the tube wall. After the cells were evenly dispersed by blowing gently, the cell suspension was pipette and added to the culture bottle prepared in advance. The state and distribution of the cells in the early stage of recovery were observed under a microscope. The culture bottle was placed in a 5% CO2 incubator and incubated at 37° C., and the recovery time was recorded. • 2) Cell subculture: Under the microscope, if the cell density in the field of view reaches 80%-90%, the cells can be subcultured. Adherent cells need to be digested with trypsin. In order to avoid the residual serum in the culture medium to reduce the activity of trypsin, DPBS solution was added to wash once after removing the original culture medium. After remove the DPBS solution, trypsin was added to degrade the protein at the junction between cells. This separates the cells for further culture. The cells were gently shaked evenly and put into the incubator for digestion for 2 min. Immediately after the digestion was completed, an appropriate amount of medium was added to the original petri dish to terminate the digestion. Finally, the cells were carefully blowed off using a pipette and blowed until they are evenly dispersed, and then inoculated and subcultured at a certain ratio according to the experimental requirements. […]
• 1) DC2.4 cells recovery: the frozen DC2.4 cells were taken out from the −80° C. refrigerator, put in a 37° C. water bath to quickly thaw the cells, added to the preheated medium after thawing, centrifuged at 1200 rpm for 5 min, the supernatant was discarded, and an appropriate amount of DMEM medium with 10% FBS was added to resuspend the recovered DC2.4, and placed in a 5% CO2 incubator at 37° C. for activation and culture. • 2) According to the experimental arrangement, DC2.4 cells were plated on a 24-well plate one day in advance for cell transfection. Through cell counting, the number of cells and cell viability were recorded, the cell suspension were taken at 2×10^5 cells per well, then a certain volume of DMEM medium containing 10% FBS was added and mixed evenly, 1 mL of mixture was added to each well for subsequent transfection experiment. • 3) After 24 hours, the medium was gently removed 30 minutes in advance by a pipette, 1 mL DPBS was added to each well for washing and then removed, then 300 μL serum-free Opti-MEM medium was added to each well for subsequent transfection experiments.
Subsequent steps are the same as the transfection protocol for PBMC cells. […]

Entrapment Efficiency [1]	PDI [2]	Particle Size [2]	Structure (SMILES)	Cell Viability [3]	Positive Rate (EGFP) [3]	Fluorescence Intensity [3]
83.58%	0.121	126.1	CCCCCCCCCCCCC(O)CN(CCOCCN(CCOCCN(CC(O)CCCCCCCCCCCC)CC(O)CCCCCCCCCCCC)CCN1CCN(CCO)CC1)CC(O)CCCCCCCCCCCC (stereo not drawn) [J-C14]	>99.0%	59.1%	0.06
81.08%	0.077	104.1	CCCCCCCCCCCCCCC(O)CN(CCOCCN(CCOCCN(CC(O)CCCCCCCCCCCCCC)CC(O)CCCCCCCCCCCCCC)CCN1CCN(CCO)CC1)CC(O)CCCCCCCCCCCCCC (stereo not drawn) [J-C16]	85.2%	62.0%	0.04
88.56%	0.163	93.7	CCCCCCCCCCCCCCCCC(O)CN(CCOCCN(CCOCCN(CC(O)CCCCCCCCCCCCCCCC)CC(O)CCCCCCCCCCCCCCCC)CCN1CCN(CCO)CC1)CC(O)CCCCCCCCCCCCCCCC (stereo not drawn) [J-C18]	83.6%	60.9%	0.04
92.83%	0.075	75.9	CCCCCCCCCCC(O)CN(CCOCCOCCN(CCOCCOCCN(CC(O)CCCCCCCCCC)CC(O)CCCCCCCCCC)CCN1CCN(CCO)CC1)CC(O)CCCCCCCCCC (stereo not drawn) [K-C12]	>99.0%	62.8%	0.07
87.00%	0.155	122.7	CCCCCCCCCCCCC(O)CN(CCOCCOCCN(CCOCCOCCN(CC(O)CCCCCCCCCCCC)CC(O)CCCCCCCCCCCC)CCN1CCN(CCO)CC1)CC(O)CCCCCCCCCCCC (stereo not drawn) [K-C14]	82.3%	59.8%	0.03
95.74%	0.185	76.0	CCCCCCCCCCCCCCC(O)CN(CCOCCOCCN(CCOCCOCCN(CC(O)CCCCCCCCCCCCCC)CC(O)CCCCCCCCCCCCCC)CCN1CCN(CCO)CC1)CC(O)CCCCCCCCCCCCCC (stereo not drawn) [K-C16]	93.4%	60.2%	0.04
92.77%	0.134	124.2	CCCCCCCCCCCCCCCCC(O)CN(CCOCCOCCN(CCOCCOCCN(CC(O)CCCCCCCCCCCCCCCC)CC(O)CCCCCCCCCCCCCCCC)CCN1CCN(CCO)CC1)CC(O)CCCCCCCCCCCCCCCC (stereo not drawn) [K-C18]	>99.0%	74.7%	0.05
93.38%	0.181	88.4	CCCCCCCCCCC(O)CN(CCOCCOCCOCCN(CCOCCOCCOCCN(CC(O)CCCCCCCCCC)CC(O)CCCCCCCCCC)CCN1CCN(CCO)CC1)CC(O)CCCCCCCCCC [L-C12]	84.9%	58.1%	0.07
91.54%	0.126	101.5	CCCCCCCCCCCCC(O)CN(CCOCCOCCOCCN(CCOCCOCCOCCN(CC(O)CCCCCCCCCCCC)CC(O)CCCCCCCCCCCC)CCN1CCN(CCO)CC1)CC(O)CCCCCCCCCCCC [L-C14]	99.0%	60.0%	0.04
92.34%	0.085	111.5	CCCCCCCCCCCCCCC(O)CN(CCOCCOCCOCCN(CCOCCOCCOCCN(CC(O)CCCCCCCCCCCCCC)CC(O)CCCCCCCCCCCCCC)CCN1CCN(CCO)CC1)CC(O)CCCCCCCCCCCCCC [L-C16]	97.2%	64.8%	0.06
91.70%	0.182	124.0	CCCCCCCCCCCCCCCCC(O)CN(CCOCCOCCOCCN(CCOCCOCCOCCN(CC(O)CCCCCCCCCCCCCCCC)CC(O)CCCCCCCCCCCCCCCC)CCN1CCN(CCO)CC1)CC(O)CCCCCCCCCCCCCCCC [L-C18]	98.6%	59.7%	0.02
